pEC50, pIC50: −log10 of the molar value. Where two headings read alike, the source gives them in different places.
What was measured:
Human venous whole blood = experiment: Human whole blood IFN-γ assay; type: cell-based; settings: human whole blood, read-out: INFg Whole Blood Normalized Agonist EC50;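 further: blood from healthy donors exposed to compound for 1 h before stimulation with anti-CD3 and anti-CD28 at 1 µg/mL each, IFN-γ quantified in supernatant by AlphaLISA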
Description: Human Whole Blood IFN-γ Assay
Human venous whole blood (22.5 μL per well), obtained from healthy donors, was pre-treated with compounds for one hour at 37° C. in a humidified 95% air/5% CO2 incubator. The blood was stimulated with 2.5 μL anti-human CD3 and anti-CD28 mAb at a final concentration of 1 μg/mL each for 24 hours at 37° C. IFN-γ in the supernatants was measured using AlphLISA kit (Cat # AL217).

human DGKζ = target: T1, human DGKζ (Homo sapiens, UniProt Q13574); experiment: DGKζ LIPGLO assay (extruded liposome substrate), in vitro DGK inhibition; type: biochemical; settings: read-out: DGKz LIPGLO IC50
T1 construct: TVMV protease cleavage site (C); Hexa-His (C); made in house; host or cells: Sf9 insect cells (baculovirus, Bac-to-Bac)

human DGKα = target: T2, human DGKα (Homo sapiens, UniProt P23743); experiment: DGKα LIPGLO assay (extruded liposome substrate), in vitro DGK inhibition; type: biochemical; settings: read-out: DGKa LIPGLO IC50
T2 construct: TVMV protease cleavage site (C); Hexa-His (C); made in house; host or cells: Sf9 insect cells (baculovirus, Bac-to-Bac)

naïve human CD8 T cells = experiment: Human CD8 T cells IFN-γ assay; type: cell-based; settings: read-out: HuCD8 INFG Normalized EC50;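 further: Naïve human CD8 T cells stimulated with plate-bound anti-CD3 and soluble anti-CD28, IFN-γ in supernatant quantified by AlphaLISA and converted to pg/mL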
[1] = Homo sapiens, 24 h, normalized to 3 μM reference compound with anti-CD3 plus anti-CD28 as 100% activation
[2] = Homo sapiens, T-cell, 20 h, normalized to 3 μM reference compound with anti-CD3 plus anti-CD28 as 100% activation
[3] = normalized to 3 μM reference compound with anti-CD3 plus anti-CD28 as 100% activation
[4] = anti-CD3 plus anti-CD28, 24 hours, 3 μM reference compound = 100% activation
[5] = Homo sapiens, T-cell, 20 h, naïve human CD8 T cells, anti-CD3 plus anti-CD28, 3 μM reference compound = 100% activation

T1 sequence (Q13574 with tags, fused parts or gaps isoform Q13574-4): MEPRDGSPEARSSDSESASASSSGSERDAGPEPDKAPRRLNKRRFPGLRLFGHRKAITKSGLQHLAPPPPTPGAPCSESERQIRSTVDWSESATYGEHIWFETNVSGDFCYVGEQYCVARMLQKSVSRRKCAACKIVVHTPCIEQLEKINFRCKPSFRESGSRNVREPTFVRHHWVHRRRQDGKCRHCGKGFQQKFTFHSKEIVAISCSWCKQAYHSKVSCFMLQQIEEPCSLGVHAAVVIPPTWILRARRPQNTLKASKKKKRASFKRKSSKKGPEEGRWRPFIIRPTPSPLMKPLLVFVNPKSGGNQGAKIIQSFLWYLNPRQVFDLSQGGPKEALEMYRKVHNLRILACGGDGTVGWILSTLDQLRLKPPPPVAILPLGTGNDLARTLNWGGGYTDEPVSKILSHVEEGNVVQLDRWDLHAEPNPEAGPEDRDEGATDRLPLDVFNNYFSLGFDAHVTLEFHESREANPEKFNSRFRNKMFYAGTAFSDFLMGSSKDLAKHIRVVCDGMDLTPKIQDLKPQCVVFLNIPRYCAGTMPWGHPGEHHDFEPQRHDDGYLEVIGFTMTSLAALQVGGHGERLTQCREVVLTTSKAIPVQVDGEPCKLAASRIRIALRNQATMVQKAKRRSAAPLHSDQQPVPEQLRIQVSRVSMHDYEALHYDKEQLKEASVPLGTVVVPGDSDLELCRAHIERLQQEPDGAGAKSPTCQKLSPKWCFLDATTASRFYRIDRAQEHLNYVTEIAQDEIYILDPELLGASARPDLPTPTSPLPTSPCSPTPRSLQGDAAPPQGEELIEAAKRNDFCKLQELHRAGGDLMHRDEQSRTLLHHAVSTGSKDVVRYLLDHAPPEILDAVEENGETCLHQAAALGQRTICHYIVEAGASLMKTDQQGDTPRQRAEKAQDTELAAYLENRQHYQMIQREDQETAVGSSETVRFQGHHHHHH
T2 sequence (P23743 with tags, fused parts or gaps): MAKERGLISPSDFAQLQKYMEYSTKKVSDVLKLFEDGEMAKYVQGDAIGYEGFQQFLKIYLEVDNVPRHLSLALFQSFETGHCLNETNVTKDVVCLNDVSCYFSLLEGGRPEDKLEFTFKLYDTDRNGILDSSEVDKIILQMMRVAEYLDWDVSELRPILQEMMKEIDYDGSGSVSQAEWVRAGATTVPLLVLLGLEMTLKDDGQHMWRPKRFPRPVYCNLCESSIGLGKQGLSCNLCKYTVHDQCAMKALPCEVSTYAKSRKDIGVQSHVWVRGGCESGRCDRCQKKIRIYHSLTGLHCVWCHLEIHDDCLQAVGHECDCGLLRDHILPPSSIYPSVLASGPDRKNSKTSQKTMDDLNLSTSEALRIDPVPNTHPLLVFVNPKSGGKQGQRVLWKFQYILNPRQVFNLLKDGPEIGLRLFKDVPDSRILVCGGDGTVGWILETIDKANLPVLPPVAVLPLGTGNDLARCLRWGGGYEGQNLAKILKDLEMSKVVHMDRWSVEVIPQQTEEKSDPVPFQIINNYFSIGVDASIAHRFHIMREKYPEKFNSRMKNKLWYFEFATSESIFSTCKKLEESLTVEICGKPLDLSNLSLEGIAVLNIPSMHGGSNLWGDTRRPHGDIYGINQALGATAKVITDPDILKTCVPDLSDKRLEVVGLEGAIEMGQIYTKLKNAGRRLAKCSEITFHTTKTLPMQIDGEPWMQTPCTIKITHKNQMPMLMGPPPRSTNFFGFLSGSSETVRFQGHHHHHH

Row | SMILES | pEC50 (Human venous whole blood; [1]) | pIC50 (human DGKζ; liposome (LIPGLO) assay) | pIC50 (human DGKα; liposome (LIPGLO) assay) | pEC50 (naïve human CD8 T cells; [2]) | pEC50 (naïve human CD8 T cells; [3]) | pEC50 (Human venous whole blood; [3]) | pEC50 (Human venous whole blood; [4]) | pIC50 (human DGKζ; DGKζ liposome (LIPGLO) assay) | pIC50 (human DGKα; DGKα liposome (LIPGLO) assay) | pEC50 (naïve human CD8 T cells; [5])
1 | C[C@@H]1CN(c2cc(=O)n(C)c3ccc(C#N)nc23)[C@@H](C)CN1C(c1ccc(F)cc1)c1cccc(F)n1 (single isomer, unassigned) [Example 471] | 6.24 | 6.28 | 6.60 | 6.70 | – | – | – | – | – | –
2 | CCOc1ncccc1C(c1ccc(F)cc1)N1C[C@H](C)N(c2cc(=O)n(C)c3ccc(C#N)nc23)C[C@H]1C (single isomer, unassigned) [Example 205] | 6.00 | 6.17 | 4.43 | – | 6.82 | – | – | – | – | –
3 | COC(=O)C1CN(C(c2ccc(F)cc2)c2ccc(F)cc2)CCN1c1c(C#N)c(=O)n(C)c2ccc(Br)nc12 (stereo not drawn) [Example 115, Methyl 4-(bis(4-fluorophenyl)methyl)-1-(6-bromo-3-cyano-1-methyl-2-oxo-1,2-dihydro-1,5-naphthyridin-4-yl)piperazine-2-carboxylate] | 5.70 | 5.06 | 6.00 | 6.41 | – | – | – | – | – | –
4 | CC[C@@H]1CN(c2cc(=O)n(C)c3ccc(C#N)nc23)[C@@H](C)CN1C(c1ccc(F)cc1)c1ccc(C#N)cc1 (single isomer, unassigned) [Example 1102] | 6.66 | 5.85 | 6.19 | 7.51 | – | – | – | – | – | –
5 | C[C@@H]1CN(c2cc(=O)n(C)c3ccc(C#N)nc23)[C@@H](C)CN1C(c1ccc(F)cc1)c1ccc(C(F)(F)F)cc1 (stereo partly drawn) [Example 294, 8-[(2S,5R)-4-[(4-fluorophenyl)[4-(trifluoromethyl)phenyl]methyl]-2,5-dimethylpiperazin-1-yl]-5-methyl-6-oxo-5,6-dihydro-1,5-naphthyridine-2-carbonitrile] | 6.25 | 6.48 | 6.72 | 7.70 | – | – | – | – | – | –
6 | C[C@@H]1CN(c2cc(=O)n(C)c3ccc(C#N)nc23)[C@@H](C)CN1Cc1ccc(C#N)cc1F [Example 253, 8-[(2S,5R)-4-[(4-cyano-2-fluorophenyl)methyl]-2,5-dimethylpiperazin-1-yl]-5-methyl-6-oxo-5,6-dihydro-1,5-naphthyridine-2-carbonitrile] | 5.52 | 6.16 | 6.70 | 7.06 | – | – | – | – | – | –
7 | Cc1cccc(C(c2ccc(Cl)cc2)N2C[C@H](C)N(c3cc(=O)n(C)c4ccc(C#N)nc34)C[C@H]2C)n1 (single isomer, unassigned) [Example 443] | 6.43 | 6.96 | 5.85 | 7.03 | – | – | – | – | – | –
8 | CC[C@H]1CN(C(c2ccc(Cl)cc2)c2ccc(F)cn2)[C@H](CC)CN1c1cc(=O)n(C)c2ccc(C#N)nc12 (single isomer, unassigned) [Example 1034] | – | 6.47 | 7.19 | – | 7.77 | 6.64 | – | – | – | –
9 | COC[C@@H]1CN(c2cc(=O)n(C)c3ccc(C#N)nc23)[C@@H](C)CN1C(c1ccc(C)cc1)c1ccc(C)cc1 [Example 1156] | 6.47 | 6.36 | 5.60 | 7.72 | – | – | – | – | – | –
10 | C[C@H]1CN(C(c2ccc(Cl)cc2)c2ccc(Cl)cc2)[C@H](CO)CN1c1cc(=O)n(C)c2ccc(C#N)nc12 [Example 1152] | 6.11 | 4.62 | 5.13 | 5.00 | – | – | – | – | – | –
11 | C[C@@H]1CN(c2cc(=O)n(C)c3ccc(C#N)nc23)[C@@H](C)CN1Cc1c(F)cccc1C#N [Example 269, 8-[(2S,5R)-4-[(2-cyano-6-fluorophenyl)methyl]-2,5-dimethylpiperazin-1-yl]-5-methyl-6-oxo-5,6-dihydro-1,5-naphthyridine-2-carbonitrile] | 5.06 | 3.62 | 4.11 | 5.92 | – | – | – | – | – | –
12 | C[C@@H]1CN(c2cc(=O)n(C)c3ccc(C#N)nc23)[C@@H](C)CN1C(c1ccc(F)cc1)c1ccc(Cl)cc1 (stereo partly drawn) [Example 300, 8-[(2S,5R)-4-[(4-chlorophenyl)(4-fluorophenyl)methyl]-2,5-dimethylpiperazin-1-yl]-5-methyl-6-oxo-5,6-dihydro-1,5-naphthyridine-2-carbonitrile] | 6.92 | 6.00 | 6.05 | 7.68 | – | – | – | – | – | –
13 | C[C@@H]1CN(c2cc(=O)n(C)c3ccc(C#N)nc23)[C@@H](C)CN1C(c1ccc(Cl)cc1)c1ccc2c(c1)OC(F)(F)O2 (single isomer, unassigned) [Example 657] | 6.18 | 5.80 | 5.62 | 7.57 | – | – | – | – | – | –
14 | C[C@@H]1CN(c2cc(=O)n(C)c3ccc(C#N)nc23)[C@@H](C)CN1Cc1c(Cl)cccc1C#N [Example 260, 8-[(2S,5R)-4-[(2-chloro-6-cyanophenyl)methyl]-2,5-dimethylpiperazin-1-yl]-5-methyl-6-oxo-5,6-dihydro-1,5-naphthyridine-2-carbonitrile] | 5.36 | 5.96 | 5.42 | 6.05 | – | – | – | – | – | –
15 | C[C@@H]1CN(c2cc(=O)n(C)c3ccc(C#N)nc23)[C@@H](C)CN1C(c1ccc(F)cc1)c1ccc(C(F)F)cc1 (single isomer, unassigned) [Example 666] | 6.04 | 5.70 | 6.14 | – | 8.25 | – | – | – | – | –
16 | CC[C@H]1CN(C(c2ccc(Cl)cc2)c2ccc(Cl)cc2)[C@H](C)CN1c1cc(=O)n(C)c2ccc(C#N)nc12 [Example 1120] | 6.17 | 7.12 | 6.96 | 7.49 | – | – | – | – | – | –
17 | Cc1ccnc(C(c2ccc(Cl)cc2)N2C[C@H](C)N(c3cc(=O)n(C)c4ccc(C#N)nc34)C[C@H]2C)c1 (single isomer, unassigned) [Example 362] | 6.14 | 6.47 | 6.64 | 6.64 | – | – | – | – | – | –
18 | C[C@@H]1CN(c2c(C#N)c(=O)n(C)c3ccc(C#N)nc23)CCN1C(c1ccc(F)cc1)c1ccc(C(F)(F)F)cn1 (single isomer, unassigned) [Example 896] | – | – | – | – | – | – | 6.68 | 6.22 | 6.72 | 6.82
19 | Cc1ccnc(C(c2ccc(F)cc2)N2C[C@H](C)N(c3cc(=O)n(C)c4ccc(C#N)nc34)C[C@H]2C)c1 (single isomer, unassigned) [Example 455] | 6.13 | 5.62 | 6.00 | 7.01 | – | – | – | – | – | –
20 | Cc1ccc(C(c2ccc(F)cc2)N2CCN(c3c(C#N)c(=O)n(C)c4ccc(C#N)nc34)C[C@H]2C)cc1 (stereo partly drawn) [Example 889] | – | – | – | – | – | – | 6.17 | 6.43 | 5.89 | 6.66
21 | C[C@@H]1CN(c2cc(=O)n(C)c3ccc(C#N)nc23)[C@@H](C)CN1Cc1cccc(F)c1 [Example 292, 8-[(2S,5R)-4-[(3-fluorophenyl)methyl]-2,5-dimethylpiperazin-1-yl]-5-methyl-6-oxo-5,6-dihydro-1,5-naphthyridine-2-carbonitrile] | 5.66 | 5.52 | 6.55 | 5.77 | – | – | – | – | – | –
22 | CC[C@@H]1CN(c2cc(=O)n(C)c3ccc(C#N)nc23)[C@@H](C)CN1C(c1ccc(F)cc1)c1ccc(Cl)cc1 (stereo partly drawn) [Example 1100] | 6.92 | 6.43 | 6.41 | 8.34 | – | – | – | – | – | –
23 | C[C@@H]1CN(c2cc(=O)n(C)c3ccc(C#N)nc23)[C@@H](C)CN1Cc1ccc(F)cc1 [Example 297, 8-[(2S,5R)-4-[(4-fluorophenyl)methyl]-2,5-dimethylpiperazin-1-yl]-5-methyl-6-oxo-5,6-dihydro-1,5-naphthyridine-2-carbonitrile] | 5.82 | 6.13 | 7.82 | 6.31 | – | – | – | – | – | –
24 | C[C@@H]1CN(c2cc(=O)n(C)c3ccc(C#N)nc23)[C@@H](C)CN1C(c1ccc(F)cn1)c1ccc(F)cc1F (single isomer, unassigned) [Example 685] | – | 6.00 | 6.52 | 7.92 | – | 7.00 | – | – | – | –
25 | C[C@@H]1CN(c2cc(=O)n(C)c3ccc(C#N)nc23)[C@@H](C)CN1C(c1ccccc1)c1ccc(OC(F)(F)F)cc1 (single isomer, unassigned) [Example 222] | – | 6.15 | 6.54 | – | 7.34 | 6.17 | – | – | – | –
26 | C[C@@H]1CN(c2cc(=O)n(C)c3ccc(C#N)nc23)[C@@H](C)CN1Cc1cccc(F)c1F [Example 286, 8-[(2S,5R)-4-[(2,3-difluorophenyl)methyl]-2,5-dimethylpiperazin-1-yl]-5-methyl-6-oxo-5,6-dihydro-1,5-naphthyridine-2-carbonitrile] | 5.66 | 5.49 | 5.72 | 6.43 | – | – | – | – | – | –
27 | C[C@@H]1CN(c2cc(=O)n(C)c3ccc(C#N)nc23)[C@@H](C)CN1Cc1ccc(C(F)(F)F)nc1Cl [Example 281, 8-[(2S,5R)-4-{[2-chloro-6-(trifluoromethyl)pyridin-3-yl]methyl}-2,5-dimethylpiperazin-1-yl]-5-methyl-6-oxo-5,6-dihydro-1,5-naphthyridine-2-carbonitrile] | 5.57 | 5.36 | 5.55 | 6.25 | – | – | – | – | – | –

From US10669272B2, “Substituted naphthyridinone compounds useful as T cell activators” (BRISTOL-MYERS SQUIBB COMPANY, priority 2018, dated 2020)
